Here are results for 110 compounds from a melting point compilation (Tetko et al.).

SMILES strings stand for the structures.

Consider `Cc1cc(C)n2nc(N)c(/N=N/c3ccccc3C)c2n1`, for which the melting point was 256 °C. Compound `COc1cc(F)c(F)cc1CBr` displayed a melting point of 42 °C. Next, `ON=C(Cl)c1c(Cl)cccc1Cl`: 85 to 89 °C. Next, `CC(C)N(C=O)C(C)C`: 10 to 11 °C; `O=C(CCCC(=O)c1ccccc1)c1ccccc1`: 64 to 67 °C; `COC(=O)c1sc(SC)nc1N`: 104 °C. Take `Nc1ccc(C(F)(F)F)nc1`: the melting point was 39 to 40 °C. Compound `Cc1ccc(N=Nc2cc(C(C)C)c(N=Nc3ccc(C)cc3)cc2C)cc1` came in with a melting point of 140 °C. As for `N#C[C@@H]1CCCC[C@H]1O` (relative stereo), the melting point lay within 46 to 49 °C. The figure for `Clc1ncnc2sc(-c3ccccc3)cc12` is 139 to 140 °C. Next, `CC(C)(C)OC(=O)NC(CI)C(=O)OCc1ccccc1` (stereo not given): 81 °C; `Cn1c(=O)c(C2=NNC(=O)C2=NNc2ccccc2Cl)c(O)c2ccccc21`: 264 °C; `Cc1cc(C)cc(O[Si]23OCCN(CCO2)CCO3)c1`: 220 °C.

Take `COC1C(O)C(C)OC(OC2CCC3(C)C(CCC4C3CCC3(C)C(C5=CC(=O)OC5)CCC43O)C2)C1O` (stereo not given): the melting point worked out at 221 °C. In the case of `c1ccc2c(c1)cc1ccc3cccc4c5ccccc5c2c1c34`, the melting point came to 162 °C. The figure for `COC(=O)C1(Br)CCC(Br)(C(=O)OC)CC1` (stereo not given) is 148 to 150 °C; for `O=C=Nc1cc(Cl)ccc1Cl` it is 30 °C. In turn, `CC1=NOC(=O)C1=NNc1ccccc1Cl` gave a melting point of 168 °C.

In the case of `CCCCCCCCCCCCCCCCC(=O)OCC`, the melting point was 28 °C. Next, `CCNCCS(=O)(=O)c1ccc(C)cc1`: 42 to 45 °C; `COc1ccc(C=Cc2cc(O)cc(OC3OC(CO)C(O)C(O)C3O)c2)cc1O` (stereo not given): 236 °C. The figure for `c1cc(CCc2ccncc2)ccn1` is 107 to 113 °C.

`CCC(=O)c1c(O)cc(O)cc1O` yielded a melting point of 176 °C.

In the case of `O=S(=O)(Cl)c1ccc(Br)c(Br)c1`, the melting point worked out at 34 °C. The figure for `CN(C)c1ccc(N=c2cc(-c3ccccc3)sc(-c3ccccc3)c2)cc1` is 165 °C; for `CN(C)C(=S)Oc1ccc2ccccc2c1` it is 90 °C; for `O=C(O)c1c(F)cccc1I` it is 121 to 126 °C. Next, `O=Cc1ccc(Cl)c([N+](=O)[O-])c1`: 63 °C; `CC(C)(C)C(O)C(Oc1ccc(-c2ccccc2)cc1)n1cncn1` (single isomer, unassigned; stereoisomer a): 139 °C; `CC(=O)c1c(-c2ccc(Cl)cc2Cl)noc1C`: 55 to 59 °C. The figure for `C[C@H]1C(=O)[C@H]2[C@@H](C[C@H]1C#N)C2(C)C` is 54.5 °C; for `C=CCOc1ccc(CC(=O)O)cc1Cl` it is 92 °C; for `c1ccc2cc3c(cc2c1)nnc1ncnn13` it is 198 to 202 °C. `O=C(Cc1ccccc1)SSC(=O)Cc1ccccc1` returned a melting point of 59 °C. The figure for `COC(=O)C1(S(=O)(=O)c2ccc(C)cc2)CCCCC1` is 146 °C; for `O=C1C(=C2c3ccccc3C(=O)C2c2cc(Cl)c([N+](=O)[O-])cc2[N+](=O)[O-])C(=O)c2ccccc21` (stereo not given) it is 218 °C.

Take `Brc1ccc2cc[nH]c2c1`: the melting point came out at 92 °C. The figure for `N#Cc1cn(-c2ccccc2Cl)c(=O)[nH]c1=O` is 255 to 258 °C; for `CC(=O)c1c(O)c(C)c(O)c(Cc2c(O)c3c(c(C(=O)C=Cc4ccccc4)c2O)OC(C)(C)C=C3)c1O` it is 212 °C; for `CC(C)(C)OC(=O)N1CC[C@H]1C(=O)O` it is 105 to 110 °C. Next, `CN(C)C(=O)Nc1ccc(-n2nc(C(C)(C)C)oc2=O)c(Cl)c1`: 193 °C; `O=C(CCl)NCc1ccc2c(c1)OCO2`: 91.4 to 93.8 °C. Next, `Cn1ccnc1`: -6 °C; `c1ccc(C2CC2)cc1`: -31 °C. Compound `CCCCCCc1ccc(C(=O)Oc2ccc(C#N)cc2)cc1` returned a melting point of 46 °C. `N=C(N)NCCC[C@H](NC(=O)OCc1ccccc1)C(=O)O` gave a melting point of 173 to 175 °C. The figure for `CCC(=O)C(=O)O` is 33 °C; for `COC(=O)c1ccc(N)c(N)c1` it is 108 to 109 °C; for `COc1ccc(C(=O)Cl)cc1` it is 24.5 °C.

With `c1ccc(OCc2nnc3sc(-c4cccc5ccccc45)nn23)cc1`, the melting point was 134 °C. The figure for `Cc1ccc2cc(F)ccc2n1` is 54 °C; for `NS(=O)(=O)c1ccccc1Cl` it is 190 °C.

Compound `CC(C)=CCCC(C)=CC=CC(C)=CC=CC(C)=CC=CC=C(C)C=CC=C(C)C=CC1=C(C)CCCC1(C)C` yielded a melting point of 178 °C. As for `CC(=O)Nc1ccc(-c2csc(N)n2)cc1`, the melting point worked out at 250 °C.

The compound `Cc1cc(C(C)(C)C)cc(C)c1I` returned a melting point of 56 °C. The figure for `O=C(CBr)c1ccc(-c2ccccn2)s1` is 123 to 126 °C; for `Nc1nn2c(C(F)(F)F)cc(=O)[nH]c2c1/N=N/c1cccc(C(F)(F)F)c1` it is 291 °C; for `CC(F)(F)CCl` it is -56.2 °C. The figure for `OCc1ccc(-c2cccs2)nc1` is 124 to 125 °C. For `CCC1C(=O)CCC1=O`, the melting point was in the range of 172 to 175 °C.

`CC(=O)C1=C(C)C(C)(O)NC1=O` (stereo not given) gave a melting point of 172 to 174 °C. `CN(C)c1ccc(C2Nc3nc(C(F)(F)F)nn3C(N)=C2C#N)cc1` (stereo not given): the melting point was found to be 164 °C.

Compound `Cc1c2c(c(C)c3c1CC3=O)C(=O)C2` returned a melting point of 188 °C. `N#Cc1ccccc1N=C=O` had a melting point of 61 to 62 °C. Next, `O=Cc1ccccc1OCc1cccc(Cl)c1`: 38 to 41 °C; `FC(F)(F)c1cccnc1Cl`: 39 °C; `COc1c(Br)cc(C(=O)O)cc1Br`: 224 to 226 °C. `COc1ccccc1-c1nnc2n1CN(c1ccccc1)CS2`: the melting point is 165 °C.

The compound `Cc1ccc(C(C)(C)C)cc1` showed a melting point of -54 °C. Compound `CCOC(=O)c1c(C)n(OC)c2ccc3nonc3c12` gave a melting point of 147 to 149 °C. The figure for `C=CCN(CC=C)c1c(C)cc(OC(=O)NC)cc1C` is 67 °C; for `CCOC(=O)c1cc(-c2ccccc2)n(-c2ccccc2)c1C` it is 97 °C; for `Cc1cc(Br)c(OCC(=O)NN)c2c1CCC2` it is 69 to 70 °C. Take `COc1ccc(C(=O)CCl)cc1`: the melting point was in the range of 98 to 100 °C. Next, `Clc1ncnc2sc3c(c12)CCCCC3`: 64 to 65 °C; `c1ccc(CC2CCCCN2)cc1` (stereo not given): 32 °C. The compound `CCCCCCCCCCCCC#N` had a melting point of 9.7 °C.

For the compound `Cn1c(=O)c(C2=NNC(=O)C2=NNc2cccc(Br)c2)c(O)c2ccccc21`, the melting point amounted to 240 °C. `Cn1ccnc1C(=O)O` gave a melting point of 104 to 106 °C.

For the compound `Cc1cccc2cccnc12`, the melting point is -80 °C.

`CCCCCCCOC(=O)c1ccc(O)cc1` gave a melting point of 48 °C. Next, `Nc1nsc(-c2ccccc2)n1`: 136 to 138 °C. The figure for `Cc1ccc(Br)c(C)c1[N+](=O)[O-]` is 70 °C.

In turn, `CCOC(=O)NNC(=O)OCC` came in with a melting point of 135 °C. Consider `CC(C)CS(=O)(=O)CC(C)C`, for which the melting point was 17 °C. `CC12CCC3C(CCC4CC(OCc5ccccc5)CCC43C)C1CCC2O` (stereo not given) displayed a melting point of 225 °C. Take `Clc1cc(Cl)c2oc3c(Cl)c(Cl)c(Cl)cc3c2c1`: the melting point was determined as 219 °C. The figure for `Nc1cc(N)c(/C=C/c2ccccc2)c(N)c1C=Cc1ccccc1` is 161 °C; for `Cc1ccc2sc(Br)cc2c1` it is 92 to 93 °C. For `Cc1ccc(C)c2c1C(=O)OC2=O`, the melting point was 195 °C.

As to `COC(=O)[C@@H]1C[C@@H]2CCCN2[C@@]12C(=O)c1cccc3cccc2c13`, the melting point is 145 °C. The figure for `Nc1nc(N)c(N=O)c(N)n1` is 300 °C. Next, `O=C(COC(=O)c1ccccc1)NC(CO)(CO)CO`: 126 °C; `CC(=O)c1cccnc1C(=O)OC(C)C`: 40 °C; `CN(C)c1ccc(CCC2CCc3ccccc3N2N=O)cc1` (stereo not given): 91 °C.

On to `N#CCC(=O)c1ccc(Cl)c(Cl)c1`, for which the melting point was 116 °C. Compound `Cn1nc(C=O)cc1-c1ccco1` displayed a melting point of 62 to 64 °C.

Regarding `O=Cc1ccc(CBr)cc1`, the melting point is 99 to 100 °C.

`CC12CCC(C(=CC=C3C(=O)C4(C)CCC3C4(C)C)C1=O)C2(C)C`: the melting point fell in the range of 283 to 285 °C. On to `O=C1c2ccccc2S(=O)(=O)N1Cl`, for which the melting point was 148 to 151 °C. The figure for `O=c1c(C2CC(c3ccc(-c4ccccc4)cc3)Cc3ccccc32)c(O)oc2ccccc12` (stereo not given) is 213 °C; for `O=C(O)c1sc2sccc2c1Cl` it is 252 to 258 °C. `N[C@H](CO)[C@H](O)c1ccc([N+](=O)[O-])cc1` returned a melting point of 160 to 166 °C. As to `O=C(CBr)c1cccc(Br)c1`, the melting point fell in the range of 51 to 52 °C. The figure for `Cc1cccc(C)c1N(C)C` is -36 °C; for `CC(=O)Nc1cc(C)ccc1O` it is 151 to 153 °C; for `CC(Cc1ccccc1)NCCC(c1ccccc1)c1ccccc1` (stereo not given) it is 38 °C.

`N#C/C(=C\c1ccccc1Cl)c1nc(-c2cccs2)cs1` yielded a melting point of 102 °C. In turn, `Cc1c(C(C)C)c(=O)n(-c2ccccc2)n1C` registered a melting point of 103 °C. As to `C1=CCc2ccccc2C1`, the melting point was determined as 25 °C.
